Assays:
[1] = Rat cerebrospinal fluid (CSF) pharmacokinetics; assay type: in vivo; settings: male, Sprague-Dawley, rat CSF/unbound plasma
Method: PK in rats was determined following oral dosing. For the oral (PO) experiments, a group of 6 male Sprague-Dawley rats with an indwelling catheter placed in the cisterna magna were used. The PO group was dosed with 3.0, or 10 mg/kg of a compound formulated as a solution in PEG400 or suspension in 0.5% Tween 80 and 0.5% Methylcellulose in water. PO doses were administered by oral gavage and delivered to the stomach using a syringe and gavage tube. Following oral dosage administration, the gavage tube was flushed with approximately 0.5 mL of water to ensure complete delivery of the full dose.
Plasma samples were collected as follows: samples of CSF and blood were collected at 1 hour, 2, and optionally at 4 hours post-dosing. CSF samples (0.05 mL) were collected through the intracisternal catheter. Blood samples (0.25 mL) were collected through tail nick sampling. These samples were kept on ice until processed for plasma. Blood samples were centrifuged at 3200 rpm for 5 minutes at approximately 5° C. within 1 hour of collection. Plasma was directly transferred to individual Eppendorf tubes (0.125 mL). Plug caps were placed on the tubes and the tubes frozen at approximately −70° C. and stored until analysis. Plasma and CSF was collected and analyzed for the presence of a compound.
The compound in question and the internal standard were extracted from plasma by precipitation and from CSF by either precipitation or dilution. Samples were analyzed using liquid chromatography (LC) with tandem mass spectrometric detection (MS/MS) using electrospray ionization. The standard curve ranged from 0.1 to 1000 ng/mL. Results of the compounds described herein in this assay are illustrated in Table G below (for a 10 mg/kg dose and/or 3 mg/kg of the compound). Compound concentrations from several animals were combined to give the geometrical mean at each specific dosage and timepoint.
Kp,uu is defined as the concentration ratio of unbound drug in CSF to unbound drug in plasma. Unbound drug in plasma (or free plasma concentration) is calculated by multiplying the total plasma concentration by the unbound fraction as determined by plasma protein binding. The CSF concentration is then divided by the free plasma concentration to determine the Kp,uu. (See e.g., Di et al., J. Med. Chem., 56, 2-12 (2013))

sGC = assay: cGMP neuronal cell-based assay (rat primary neurons); settings: rat primary hippocampal neurons, DETA-NO 10 μM or 30 μM, cGMP by LC-MS/MS; read-out: sGC Neuron EC50
Method: Rat primary neurons were isolated from fetuses of 18-day pregnant Sprague-Dawley females. The fetuses were collected in Hanks' balanced salt solution (HBSS) and brains were rapidly removed. The cerebral hippocampi were isolated and mechanically fragmented. Further tissue digestion was performed with 0.25% (wt/vol) trypsin solution in HBSS without Ca2+ and Mg2+ for 15 min at 37° C. After trypsination, cells were washed and resuspended in neurobasal medium supplemented with 0.5 mM L-glutamine, 12.5 uM glutamic acid, 2% B-27 and 100 U/mL penicillin, and 100 μg/mL streptomycin. Cells were plated at a density of 26×10^3 or 3×10^4 or 4×10^4 cells/well in a poly-D-lysine coated 384-well flat clear-bottom plate (Corning Cat No 354662). Cells were incubated 6-7 days at 37° C. in a humidified chamber with 5% CO2. Media was removed and cells were washed 1× with HBSS containing Ca2+ and Mg2+, and replaced with 40 uL HBSS containing 0.5 mM IBMX, and incubated for 15 minutes at 37° C. 10 uL of a 5× stock of test compounds with diethylenetriamine NONOate (DETA-NO) was added. Final concentration of DETA-NO was either 10 μM or 30 μM. Cells were incubated for 20 min at 37° C. Medium was removed, 50 uL of ice-cold 10% acetic acid was added, and incubated for 60 minutes at 4° C. Following centrifugation at 4° C. for 5 minutes at 1000×g to pellet cell debris, the supernatant was aspirated to a clean plate and the samples were analyzed for cGMP content. cGMP concentrations were determined from each sample using LC-MS/MS.
Concentration response data were analyzed using a 4-parameter fit (log (agonist) vs. response-variable slope). The EC50 was interpolated from the curve fit and is defined as the concentration at which the compound elicits 50% of its maximal response. When the experiment was carried out multiple times for a given compound, the geometrical mean of all experiments is reported.

Oc1nc(-c2cn3c(F)cnc3c(Cc3cc(F)ccc3F)n2)ncc1F [Compound I-5]
Kp uu at 1 h ([1]; PO 3 mg/kg): 2 to 3
Kp uu at 2 h ([1]; PO 3 mg/kg): 2 to 3
Kp uu at 4 h ([1]; PO 3 mg/kg): 2 to 3
EC50 (sGC): ≤ 0.1 µM

Oc1nc(-c2cn3ccnc3c(Cc3cc(F)ccc3F)n2)ncc1Cl [Compound I-16, 5-chloro-2-(8-(2,5-difluorobenzyl)imidazo[1,2-a]pyrazin-6-yl)pyrimidin-4-ol]
Kp uu at 1 h ([1]; PO 3 mg/kg): > 3
Kp uu at 2 h ([1]; PO 3 mg/kg): > 3
Kp uu at 4 h ([1]; PO 3 mg/kg): > 3
EC50 (sGC): ≤ 0.1 µM

Cc1cc(F)c(Cc2nc(-c3ncc(F)c(O)n3)cn3ccnc23)cc1F [Compound I-14, 5-fluoro-2-(8-(2,5-difluoro-4-methylbenzyl)imidazo[1,2-a]pyrazin-6-yl)pyrimidin-4-ol]
Kp uu at 1 h ([1]; PO 3 mg/kg): > 3
Kp uu at 2 h ([1]; PO 3 mg/kg): > 3
Kp uu at 4 h ([1]; PO 3 mg/kg): > 3
Kp uu at 1 h ([1]; PO 10 mg/kg): > 3
Kp uu at 2 h ([1]; PO 10 mg/kg): > 3
Kp uu at 4 h ([1]; PO 10 mg/kg): 2 to 3
EC50 (sGC): ≤ 0.1 µM

Oc1nc(-c2cn3ccnc3c(Cc3ccccc3)n2)ncc1F [Compound I-2, 2-(8-Benzylimidazo[1,2-a]pyrazin-6-yl)-5-fluoropyrimidin-4-ol]
EC50 (sGC): 0.1 to 1 µM

Oc1nc(-c2cn3ccnc3c(Cc3ccccc3F)n2)ncc1F [Compound I-21]
EC50 (sGC): ≤ 0.1 µM

Oc1nc(-c2cn3ccnc3c(Cc3cc(F)ccc3F)n2)ncc1F [Compound I-20, 5-fluoro-2-(8-(2,5-difluorobenzyl)imidazo[1,2-a]pyrazin-6-yl)pyrimidin-4-ol]
Kp uu at 1 h ([1]; PO 3 mg/kg): 2 to 3
Kp uu at 2 h ([1]; PO 3 mg/kg): 2 to 3
Kp uu at 4 h ([1]; PO 3 mg/kg): 2 to 3
Kp uu at 1 h ([1]; PO 10 mg/kg): 1 to 2
Kp uu at 2 h ([1]; PO 10 mg/kg): 2 to 3
Kp uu at 4 h ([1]; PO 10 mg/kg): 2 to 3
EC50 (sGC): ≤ 0.1 µM

Cc1cc(F)c(Cc2nc(-c3ncc(F)c(O)n3)cn3c(F)cnc23)cc1F [Compound I-18]
Kp uu at 1 h ([1]; PO 3 mg/kg): 1 to 2
Kp uu at 2 h ([1]; PO 3 mg/kg): 1 to 2
Kp uu at 4 h ([1]; PO 3 mg/kg): 1 to 2

Oc1nc(-c2cn3ncnc3c(Cc3ccccc3F)n2)ncc1F [Compound I-23]
EC50 (sGC): ≤ 0.1 µM

Oc1nc(-c2cn3ccnc3c(Cc3cccc(F)c3F)n2)ncc1F [Compound I-4, 2-(8-(2,3-Difluorobenzyl)imidazo[1,2-a]pyrazin-6-yl)-5-fluoropyrimidin-4-ol]
Kp uu at 1 h ([1]; PO 3 mg/kg): ≤ 1
Kp uu at 2 h ([1]; PO 3 mg/kg): 1 to 2
Kp uu at 4 h ([1]; PO 3 mg/kg): 1 to 2
EC50 (sGC): ≤ 0.1 µM

Cc1cc(F)c(Cc2nc(-c3nccc(O)n3)cn3ccnc23)cc1F [Compound I-15, 2-(8-(2,5-difluoro-4-methylbenzyl)imidazo[1,2-a]pyrazin-6-yl)pyrimidin-4-ol]
EC50 (sGC): 0.1 to 1 µM

Cc1cc(F)c(Cc2nc(-c3ncc(F)c(O)n3)cn3ncnc23)cc1F [Compound I-19, 5-Fluoro-2-(8-(2,5-difluoro-4-methylbenzyl)-[1,2,4]triazolo[1,5-a]pyrazin-6-yl)pyrimidin-4-ol]
EC50 (sGC): ≤ 0.1 µM

From patent US20240207265A1, “TREATMENT OF CNS DISEASES WITH sGC STIMULATORS” (Tisento Therapeutics Inc., priority 2021, published 2024)
